Experimental data: US20150366845A1, “PHARMACEUTICAL COMPOSITION FOR DISEASES CAUSED BY PATHOGENIC MICROORGANISMS SUCH AS ASPERGILLUS” (POLA PHARMA INC., priority 2013, published 2015)

Assays:
Trichomonas vaginalis = assay: Growth inhibition of clinically isolated Trichomonas vaginalis in Trichomonas medium F (Neutral Red colour, inverted microscope); assay type: cell-based; settings: for Color / Result of microscopic observation: 72 hours at 37° C.; for Result of microscopic observation: inverted microscope
Protocol: The effect on Trichomonas vaginalis was investigated for luliconazole of the compound represented by the general formula (1). That is, 5×10^6 cells of clinically isolated Trichomonas vaginalis were seeded in Trichomonas medium F (6.5 mL, contained in tube) produced by Fujiyakuhin Co., Ltd. containing Neutral Red as a marker, and the preculture was carried out for 72 hours (preculture). It was confirmed that Trichomonas grew, the acid was actively produced, and Neutral Red was changed to be yellow. After that, the preculture was added to Trichomonas medium F by every 100 μL in order to carry out the main culture, to which 0.5 mL of a test solution was added. In this situation, the number of protozoas in the solution of preculture was 1.5×10^5 cells/mL. Three series of test solutions were prepared, in which the luliconazole concentrations were 200 μM (final concentration: 35.2 μM), 100 μM (final concentration: 17.6 μM), and 50 μM (final concentration: 8.8 μM), as luliconazole dissolved in 10% methanol saline solution. 0.5 mL of vehicle was added as a control. As for the vehicle, 10% methanol saline solution (final concentration: 0 μM) was used. Stirring was sufficiently performed after the addition, followed by culturing at 37° C. for 72 hours. After the completion of the cultivation, the color was discriminated, and the state of protozoas was observed by using an inverted microscope. […] The same or equivalent investigation as that of Example 1 was performed while changing luliconazole to lanoconazole.

[1] = tested on: Chlamydia trachomatis (D/UW3/Cx); assay: Anti-intracellular parasite action, Chlamydia inclusion bodies in HeLa 229 host cells (fluorescence staining); assay type: cell-based
Protocol: The anti-intracellular parasite action was investigated by using Chlamydia trachomatis (D/UW3/Cx). That is, Chlamydia trachomatis was cultured in the presence of ×2 dilution series of 8 to 64 μg/ml of luliconazole by using HeLa 229 cells as the host. MEM added with 8% thermally inactivated FBS, to which 1 μg/ml of cyclohexamide was added, was used as the medium, and the culture was performed for 72 hours in 5% carbon dioxide gas at 37° C. After the culture, inclusion bodies were subjected to the fluorescent staining to be apple green with Chlamydia FA reagent “Seiken” (produced by DENKA SEIKEN Co., Ltd.), and the observation was performed by using a fluorescence microscope.

[2] = final concentration 8.8 μM, Neutral Red marker
[3] = final concentration 17.6 μM, Neutral Red marker
[4] = final concentration 35.2 μM, Neutral Red marker (yellow = acid production by growing Trichomonas)

Row | Structure (SMILES) | Color (Trichomonas vaginalis; [2]) | Result of microscopic observation (Trichomonas vaginalis; final concentration 8.8 μM) | Color (Trichomonas vaginalis; [3]) | Result of microscopic observation (Trichomonas vaginalis; final concentration 17.6 μM) | Color (Trichomonas vaginalis; [4]) | Result of microscopic observation (Trichomonas vaginalis; final concentration 35.2 μM) | growth of Trichomonas (Trichomonas vaginalis; at 8.8 μM) | observation result of Chlamydia inclusion bodies ([1]; treatment with 8 μg/mL, FIG. 1 panel (A)) | observation result of Chlamydia inclusion bodies ([1]; treatment with 16 μg/mL, FIG. 1 panel (B)) | observation result of Chlamydia inclusion bodies ([1]; treatment with 32 μg/mL, FIG. 1 panel (C))
1 | N#C/C(=C1/SCC(c2ccccc2Cl)S1)n1ccnc1 (stereo not shown) [lanoconazole, 4-(2-chlorophenyl)-1,3-dithiolane-2-ylidene-1-imidazolyl acetonitrile] | yellow | large number of protozoas were observed | red | protozoas were observed slightly | red | no protozoa was observed | – | – | – | –
2 | N#C/C(=C1/SC[C@@H](c2ccc(Cl)cc2Cl)S1)n1ccnc1 [luliconazole, (R)-(−)-(E)-[4-(2,4-dichlorophenyl)-1,3-dithiolane-2-ylidene]-1-imidazolyl acetonitrile] | yellow | protozoas were observed slightly | red | no protozoa was observed | red | no protozoa was observed | inhibits the growth | dot-shaped Chlamydia inclusion bodies stained apple green were observed | dot-shaped Chlamydia inclusion bodies stained apple green were observed | No inclusion body was found
